Experimental data as given in publication PMC5292237 (Bioorganic & medicinal chemistry, 2016).

What was measured:
LSD1 = details: cited from earlier work
human recombinant LSD1 = human recombinant LSD1 (Homo sapiens, UniProt O60341); experiment: Labeling of human recombinant LSD1 after pre-treatment with LSD1 inhibitors; assay type: biochemical

Row | SMILES | reported potency over LSD1 (LSD1) [µM] | effect of inhibitor pre-treatment on LSD1 labeling by probe 17 (human recombinant LSD1; compound 12 1 mM or TCP 1.5 mM, 30 min pre-incubation, probe 17 40 µM, 2 min UV) | effect of inhibitor pre-treatment on LSD1 labeling by probe 18 (human recombinant LSD1; compound 12 pre-incubation 30 min, probe 18 10 µM, 2 min)
1 | N[C@@H]1C[C@H]1c1ccccc1 (relative stereo) [TCP, trans-2-phenylcyclopropyl-1-amine] | 20 to 400 |  | 
2 | C=Cc1ccc(C(=O)Nc2ccc([C@@H]3C[C@H]3N)cc2)cc1.Cl (relative stereo) [compound 12, N-(4-(trans-2-aminocyclopropyl)phenyl)-4-vinyl benzamide hydrochloride] |  | no reduction in protein labeling | no clear difference
